The results in this text go back to patent publication US20250188078A1, “SMALL MOLECULE INHIBITORS OF THE CRL4 UBIQUITIN LIGASE” (Cornell University, priority 2022, published 2025).

Data set [1] has as its system CUL4A^high MDA-MB-468 breast cancer cells. Kind of data set: Cell killing in CUL4-high MDA-MB-468 cells (CellTiter Glo). Particulars: Homo sapiens, 192 h; MDA-MB-468 cells, 8 days treatment; read-out: EC50 CUL4-High Cells (cell killing). The class given is cell-based. The essentials: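 Cells seeded, treated after 24 h with DMSO or compound (0 to 20 μM). Medium and compound replaced every 48 h over 8 days. Viability measured by CellTiter-Glo luminescence; EC50 (50% killing) from log(inhibitor) vs response nonlinear fit.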
A general note: Cellular ATP, detected with luciferase, serves as a proxy for viable cell number.

For data set [2], the system named is UV-induced CUL4-dependent DDB2 degradation in MEF-F-DDB2 cells. The experiment in a line: Cell-based assay for inhibition of UV-induced CUL4-dependent DDB2 degradation. Also on record: key: (+) means that the normalized DDB2/α-tubulin ratio is higher in the compound treated sample than DMSO treated sample; (−) means that no change happens between compound treated sample with control sample. Particulars: DDB2/α-tubulin by Western blot. The essentials: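 MEF cells expressing Flag-DDB2, in serum-free medium, treated with DMSO or compound, UV-irradiated (254 nm, 0.2 W/m^2), then harvested. Flag-DDB2 measured by western blot against α-tubulin; (+) denotes normalized DDB2/α-tubulin above DMSO, (−) no change.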

The target of data set [3] is CUL4A-DDB1-BPB interaction (Homo sapiens (Human), UniProt Q16531). The experiment in a line: AlphaLISA in vitro binding assay, CUL4A and DDB1-BPB binding. Particulars: inhibition of CUL4A and DDB1-BPB binding. The essentials:
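Compound disruption of CUL4A binding to DDB1-BPB measured by AlphaLISA/AlphaScreen bead proximity in 384-well format. IC50 from nonlinear log(inhibitor)-vs-response curve fit.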

The nature of data set [4]: Dynamic light scattering (DLS) solubility assay. The settings on record: normalized intensity ratio of 25 μM compound vs DMSO, in PBS. The class given is physicochemical. On the procedure: Dynamic light scattering (DLS) (see Table 1, column 3) is a tool for studying the diffusion behavior of macromolecules in solution. To profile compound solubility, DLS assay was developed for measuring aggregation of small molecule compounds. Compound stock solution was prepared in DMSO. Dilution series were made for each compound in DMSO to ensure a final 1× assay concentration range of 200 μM to 0.78 μM. For example, if the final DMSO concentration was 1%, compounds were prepared at 100× concentrations ranging from […] to 78 μM. Dilute compounds in PBS solution to final concentration. Place 60 μl/well in 96 well plates and 3 replicates for each sample. Data were collected using a DynaPro Plate Reader III (WYATT Technologies, Inc., USA). The instrument was adjusted to measure the optimal light scattering intensity according to the manufacturer's instructions. […] The ratio over 2 means (−) insoluble. The ratio below 2 means (+) soluble and around 2 means (+/−).

Data set [5] relates to CUL4A^low T47D breast cancer cells. Kind of data set: Cell killing in CUL4-low T47D cells (CellTiter Glo). It is filed as cell-based. The settings on record: Homo sapiens, 192 h; T47D cells, 8 days treatment; read-out: EC50 CUL4-Low Cells (cell killing). On the procedure:
EC50 indicates compound concentration can cause 50% cell killing in CUL4° ^w T47D cells (see Table 1, column 7). CUL4A^low T47D breast cancer cells were seeded in 96 well plate. […] Change fresh medium and compounds every 48 hours. After 8 days treatment, cell viability was examined by using CellTiter Glo kit (Promega #7570) following the manufacturer's guidelines (https://www.promega.com/-/media/files/resources/protocols/technical-bulletins/0/celltiter-glo-luminescent-cell-viability-assay-protocol.pdf?rev=0d95c232094b41daa06d0c110d1d916f&sc_lang=en, hereby incorporated by reference in its entirety for all purposes). EC50 concentration was calculated by Prism 8 XY analysis nonlinear regression (curve fit-Log(inhibitor) vs response). EC50 indicates cell killing potential in CUL4 low T47D cell line and the EC50 difference between CUL4^high and CUL4^low cells indicates the small molecule cause specific cell killing.
CUL4A^high MDA-MB-468, CUL4^low (T47D), and MCF7 breast cancer cells were seeded in 96 well plates separately. […] Replace with fresh medium and compounds every 48 hours. After 8 days treatment, cell viability was examined by CellTiter Glo kit (Promega #7570). First, transfer the appropriate volume (10 ml for Cat. #G7570) of CellTiter-Glo® Buffer into the amber bottle containing CellTiter-Glo® Substrate to reconstitute the lyophilized enzyme/substrate mixture. This forms the CellTiter-Glo® Reagent. Second, add CellTiter-Glo® Reagent in an equal volume (100 μl per well for 96-well plates) to all wells. Mix contents for 2 minutes on an orbital shaker to induce cell lysis. Incubate at room temperature for 15 minutes to stabilize luminescent signal. Then record luminescence. EC50 concentration was calculated by Prism 8 XY analysis nonlinear regression (curve fit-Log(inhibitor) vs response).

Broadly, the EC50 is the concentration that produces a half-maximal response. As usually defined, the IC50 is the concentration needed to halve the response being measured.

SMILES strings stand for the structures.

CUL4A-DDB1-BPB interaction, sequence (Q16531 403-706): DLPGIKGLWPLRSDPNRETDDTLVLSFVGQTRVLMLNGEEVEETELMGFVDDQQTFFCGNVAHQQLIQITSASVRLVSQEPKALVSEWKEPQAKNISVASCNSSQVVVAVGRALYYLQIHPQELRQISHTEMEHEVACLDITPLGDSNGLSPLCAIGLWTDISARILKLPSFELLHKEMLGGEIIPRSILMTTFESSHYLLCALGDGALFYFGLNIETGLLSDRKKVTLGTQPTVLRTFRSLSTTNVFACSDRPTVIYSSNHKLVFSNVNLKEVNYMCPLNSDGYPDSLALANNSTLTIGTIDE

Consider `CN(c1ccc(-c2nc(C(=O)O)cc3c2[nH]c2ccc(F)c(F)c23)cc1)S(=O)(=O)c1ccccc1` [PA1-1, 1-[4-[benzenesulfonyl(methyl)amino]phenyl]-5,6-difluoro-9H-pyrido[3,4-b]indole-3-carboxylic acid], for which the EC50 is 15.2 µM in data set [1] and over 100 µM in data set [5]. In addition, the “Degradation Inhibition (inhibition of UV-induced DDB2 degradation)” value (“Degradation Inhibition” below) in data set [2] is “−”. For the same molecule, the IC50 in data set [3] turned out to be 0.17 µM. Moreover, the “Solubility (DLS Assay)” value in data set [4] is given as “-(insoluble)”.
As for `CN(c1ccc(-c2nc(C(=O)O)cc3c2[nH]c2c(F)cccc23)cc1)S(=O)(=O)c1ccccc1` [PA1-4, 8-fluoro-1-(4-(N-methylphenylsulfonamido)phenyl)-9H-pyrido[3,4-b]indole-3-carboxylic acid], the concentration for a half-maximal effect (EC50) in data set [1] is 6.9 µM; in data set [5] it was 10.9 µM. In addition, the “Degradation Inhibition” value in data set [2] was “−”. Also, in data set [3], the IC50 was 8.88 µM.
Turning to `Cc1ccc(S(=O)(=O)N(C)c2ccc(-c3nc(C(=O)O)cc4c3[nH]c3ccc(F)cc34)cc2)cc1` [PA2-1, 6-fluoro-1-[4-[methyl-(p-tolylsulfonyl)amino]phenyl]-9H-pyrido[3,4-b]indole-3-carboxylic acid], the EC50 is 9.32 µM in data set [1] and over 100 µM in data set [5]. Further, the “Degradation Inhibition” value in data set [2] is reported as “−”. Moreover, the half-inhibitory concentration (IC50) in data set [3] was determined as 0.3 µM. Moreover, the “Solubility (DLS Assay)” value in data set [4] was “-(insoluble)”.
The matching figures for `COc1ccc(S(=O)(=O)N(C)c2ccc(-c3nc(C(=O)O)cc4c3[nH]c3ccc(F)cc34)cc2)cc1` [PA2-2, 6-fluoro-1-[4-[(4-methoxyphenyl)-sulfonyl-methyl-amino]phenyl]-9H-pyrido[3,4-b]indole-3-carboxylic acid]: 8.45 µM, over 100 µM, “−”, 0.89 µM and “-(insoluble)”.
For the molecule `CN(c1ccc(-c2nc(C(=O)O)cc3c2[nH]c2ccc(F)cc23)cc1)S(=O)(=O)c1ccc(F)cc1` [PA2-3, 6-fluoro-1-[4-[(4-fluorophenyl)sulfonyl-methyl-amino]phenyl]-9H-pyrido[3,4-b]indole-3-carboxylic acid], the EC50 is 13.3 µM in data set [1] and over 100 µM in data set [5]. For the same molecule, the “Degradation Inhibition” value in data set [2] is given as “−”. Moreover, the concentration for half-maximal inhibition (IC50) in data set [3] was 0.48 µM. In addition, the “Solubility (DLS Assay)” value in data set [4] is recorded as “-(insoluble)”.
In the case of `CN(c1ccc(-c2nc(C(=O)O)cc3c2[nH]c2ccc(F)cc23)cc1)S(=O)(=O)c1ccc(Br)cc1` [PA2-4, 1-[4-[(4-bromophenyl)sulfonyl-methyl-amino]phenyl]-6-fluoro-9H-pyrido[3,4-b]indole-3-carboxylic acid], the EC50 in data set [1] was 4.49 µM; in data set [5], over 100 µM. Besides, the “Degradation Inhibition” value in data set [2] was “+”. The IC50 in data set [3] is 0.75 µM.
For `COC(=O)c1ccc(-c2nc(C(=O)O)cc3c2[nH]c2ccccc23)cc1` [PA20, 1-(4-methoxycarbonylphenyl)-9H-pyrido[3,4-b]indole-3-carboxylic acid], the results for the EC50 in data set [1] and in data set [5] were 91.3 µM and over 100 µM, respectively. Besides, in data set [2], the “Degradation Inhibition” value is reported as “+”. For the same molecule, the IC50 in data set [3] was determined as 2.09 ± 1.26 µM.
With `O=[N+]([O-])c1ccc(-c2nc(-c3nn[nH]n3)cc3c2[nH]c2ccccc23)cc1` [PA40, 1-(4-nitrophenyl)-3-(1H-tetrazol-5-yl)-9H-pyrido[3,4-b]indole], the figures for the EC50 in data set [1] and in data set [5] were 23.5 µM and 54.7 µM, respectively. Besides, the IC50 in data set [3] came to 12.9 ± 7.44 µM. Besides, the “Solubility (DLS Assay)” value in data set [4] is given as “-(insoluble)”.
Turning to `N#Cc1cc2c([nH]c3ccccc32)c(-c2ccc([N+](=O)[O-])cc2)n1` [PA42, 1-(4-nitrophenyl)-9H-pyrido[3,4-b]indole-3-carbonitrile], the EC50 in data set [1] was 73.1 µM; in data set [5] it was over 100 µM. In addition, the “AlphaLisa IC50” value in data set [3] is recorded as “Neg”.
As to `CS(=O)(=O)Nc1ccc(-c2nc(C(=O)O)cc3c2[nH]c2ccccc23)cc1` [PA48, 1-[4-(methanesulfonamido)phenyl]-9H-pyrido[3,4-b]indole-3-carboxylic acid], the concentration for a half-maximal effect (EC50) in data set [1] was 84.1 µM; in data set [5], over 100 µM. Besides, the “Degradation Inhibition” value in data set [2] is on record as “+”. For the same molecule, the IC50 in data set [3] was 1.26 ± 0.45 µM.
With `CS(=O)(=O)Oc1ccc(-c2nc(C(=O)O)cc3c2[nH]c2ccccc23)cc1` [PA53, 1-(4-methylsulfonyloxyphenyl)-9H-pyrido[3,4-b]indole-3-carboxylic acid], the results for the concentration for a half-maximal effect (EC50) in data set [1] and in data set [5] were 27.5 µM and 69.5 µM, respectively. For the same molecule, the concentration for half-maximal inhibition (IC50) in data set [3] amounted to 1.31 ± 0.24 µM.
As to `COC(=O)c1cc2c([nH]c3ccccc32)c(-c2ccc(S(C)(=O)=O)cc2)n1` [PA54], the EC50 in data set [1] and in data set [5] was over 100 µM each time. The “Degradation Inhibition” value in data set [2] was “+”. For the same molecule, in data set [3], the “AlphaLisa IC50” value was “Neg”. For the same molecule, in data set [4], the “Solubility (DLS Assay)” value is given as “-(insoluble)”.
`CS(=O)(=O)NC(=O)c1cc2c([nH]c3ccccc32)c(-c2ccc(S(C)(=O)=O)cc2)n1` [PA55]: the results for the concentration for a half-maximal effect (EC50) in data set [1] and in data set [5] were 30.7 µM and 53.8 µM, respectively. For the same molecule, the “Degradation Inhibition” value in data set [2] is given as “−”. In data set [3], the half-inhibitory concentration (IC50) stood at 11.1 ± 2.71 µM.
Consider `COC(=O)c1cc2c([nH]c3ccccc32)c(-c2ccc(S(=O)(=O)Cc3ccccc3)cc2)n1` [PA65, methyl 1-(4-benzylsulfonylphenyl)-9H-pyrido[3,4-b]indole-3-carboxylate], for which the EC50 in data set [1] amounted to 18.1 µM; in data set [5], 44.3 µM. Moreover, in data set [3], the “AlphaLisa IC50” value is on record as “Neg”. For the same molecule, the “Solubility (DLS Assay)” value in data set [4] is given as “-(insoluble)”.
Take `O=C(O)c1cc2c([nH]c3ccccc32)c(-c2ccc(S(=O)(=O)Cc3ccccc3)cc2)n1` [PA67, 1-(4-benzylsulfonylphenyl)-9H-pyrido[3,4-b]indole-3-carboxylic acid]: the concentration for a half-maximal effect (EC50) in data set [1] was 53.8 µM; in data set [5], over 100 µM. In data set [3], the IC50 is 1.22 ± 0.35 µM.
In the same order, the values of `CN(c1ccc(-c2nc(C(=O)O)cc3c2[nH]c2ccccc23)cc1)S(C)(=O)=O` [PA75, 1-[4-[methyl(methylsulfonyl)amino]phenyl]-9H-pyrido[3,4-b]indole-3-carboxylic acid] are 38.7 µM, 64 µM and 1.39 ± 0.43 µM.
As to `COC(=O)c1cc2c([nH]c3ccc(F)cc32)c(-c2ccc(N(C)S(=O)(=O)c3ccccc3)cc2)n1` [PA93-1], the 50% effective concentration (EC50) in data set [1] was 21.8 µM; in data set [5], over 100 µM. In addition, in data set [2], the “Degradation Inhibition” value is reported as “−”. In data set [3], the “AlphaLisa IC50” value is listed as “Neg”. In data set [4], the “Solubility (DLS Assay)” value is on record as “-(insoluble)”.
